According to the kinase profiling compilation of Christmann-Franck et al. (2016):

What follows are compounds tested against CSNK2A2 (human) (UniProt P19784) (assay: radiometric filter-binding kinase assay, Kinase HotSpot). Settings: compound 0.5 µM; ATP 10 µM.
For `Cc1ccc(NC(=O)c2ccc(CN3CCN(C)CC3)cc2)cc1Nc1nc(-c2cccnc2)cs1`, the residual activity was 86.7%. Compound `CC(C)[C@H](CO)Nc1nc(Nc2cccc(Cl)c2)c2ncn(C(C)C)c2n1` has a residual activity of 93.2%. `CSc1nc(-c2ccc(F)cc2)c(-c2ccnc(NC(C)c3ccccc3)c2)[nH]1` (stereo not drawn) was tested, and the residual activity was 88.8%.

Each compound was assayed on ARAF (human), P10398 [Y301D/Y302D] in the same assay as above. Settings: compound 0.5 µM; ATP 10 µM.
For `Cc1ccc(NC(=O)c2ccc(CN3CCN(C)CC3)cc2)cc1Nc1nc(-c2cccnc2)cs1`, the residual activity was 102%. Work on `CC(C)[C@H](CO)Nc1nc(Nc2cccc(Cl)c2)c2ncn(C(C)C)c2n1` yielded a residual activity of 96.5%. `CSc1nc(-c2ccc(F)cc2)c(-c2ccnc(NC(C)c3ccccc3)c2)[nH]1` (stereo not drawn) was tested, and the residual activity was 99%.

What follows are compounds tested against OXSR1 (human) (UniProt O95747) in the same assay as above. Settings: compound 0.5 µM; ATP 10 µM.
In the case of `Cc1ccc(NC(=O)c2ccc(CN3CCN(C)CC3)cc2)cc1Nc1nc(-c2cccnc2)cs1`, the residual activity is reported as 95.6%. `CC(C)[C@H](CO)Nc1nc(Nc2cccc(Cl)c2)c2ncn(C(C)C)c2n1` gave a residual activity of 94.4%. With `CSc1nc(-c2ccc(F)cc2)c(-c2ccnc(NC(C)c3ccccc3)c2)[nH]1` (stereo not drawn) the residual activity was 88.2%.

Each compound was assayed against MAP3K14 (human) (UniProt Q99558) in the same assay as above. Settings: compound 0.5 µM; ATP 10 µM.
Compound `Cc1ccc(NC(=O)c2ccc(CN3CCN(C)CC3)cc2)cc1Nc1nc(-c2cccnc2)cs1` has a residual activity of 91%. In the case of `CC(C)[C@H](CO)Nc1nc(Nc2cccc(Cl)c2)c2ncn(C(C)C)c2n1`, the residual activity is reported as 112%. `CSc1nc(-c2ccc(F)cc2)c(-c2ccnc(NC(C)c3ccccc3)c2)[nH]1` (stereo not drawn) gave a residual activity of 127%.

The compounds below were run against IRAK4 (human) (UniProt Q9NWZ3) in the same assay as above. Settings: compound 0.5 µM; ATP 10 µM.
`Cc1ccc(NC(=O)c2ccc(CN3CCN(C)CC3)cc2)cc1Nc1nc(-c2cccnc2)cs1` gave a residual activity of 97.4%. `CC(C)[C@H](CO)Nc1nc(Nc2cccc(Cl)c2)c2ncn(C(C)C)c2n1` gave a residual activity of 88.6%. `CSc1nc(-c2ccc(F)cc2)c(-c2ccnc(NC(C)c3ccccc3)c2)[nH]1` (stereo not drawn) showed a residual activity of 82.6%.

Each compound was assayed against MYO3B (human) (UniProt Q8WXR4) in the same assay as above. Settings: compound 0.5 µM; ATP 10 µM.
MYO3B (human), sequence (Q8WXR4 whole entry, looked up): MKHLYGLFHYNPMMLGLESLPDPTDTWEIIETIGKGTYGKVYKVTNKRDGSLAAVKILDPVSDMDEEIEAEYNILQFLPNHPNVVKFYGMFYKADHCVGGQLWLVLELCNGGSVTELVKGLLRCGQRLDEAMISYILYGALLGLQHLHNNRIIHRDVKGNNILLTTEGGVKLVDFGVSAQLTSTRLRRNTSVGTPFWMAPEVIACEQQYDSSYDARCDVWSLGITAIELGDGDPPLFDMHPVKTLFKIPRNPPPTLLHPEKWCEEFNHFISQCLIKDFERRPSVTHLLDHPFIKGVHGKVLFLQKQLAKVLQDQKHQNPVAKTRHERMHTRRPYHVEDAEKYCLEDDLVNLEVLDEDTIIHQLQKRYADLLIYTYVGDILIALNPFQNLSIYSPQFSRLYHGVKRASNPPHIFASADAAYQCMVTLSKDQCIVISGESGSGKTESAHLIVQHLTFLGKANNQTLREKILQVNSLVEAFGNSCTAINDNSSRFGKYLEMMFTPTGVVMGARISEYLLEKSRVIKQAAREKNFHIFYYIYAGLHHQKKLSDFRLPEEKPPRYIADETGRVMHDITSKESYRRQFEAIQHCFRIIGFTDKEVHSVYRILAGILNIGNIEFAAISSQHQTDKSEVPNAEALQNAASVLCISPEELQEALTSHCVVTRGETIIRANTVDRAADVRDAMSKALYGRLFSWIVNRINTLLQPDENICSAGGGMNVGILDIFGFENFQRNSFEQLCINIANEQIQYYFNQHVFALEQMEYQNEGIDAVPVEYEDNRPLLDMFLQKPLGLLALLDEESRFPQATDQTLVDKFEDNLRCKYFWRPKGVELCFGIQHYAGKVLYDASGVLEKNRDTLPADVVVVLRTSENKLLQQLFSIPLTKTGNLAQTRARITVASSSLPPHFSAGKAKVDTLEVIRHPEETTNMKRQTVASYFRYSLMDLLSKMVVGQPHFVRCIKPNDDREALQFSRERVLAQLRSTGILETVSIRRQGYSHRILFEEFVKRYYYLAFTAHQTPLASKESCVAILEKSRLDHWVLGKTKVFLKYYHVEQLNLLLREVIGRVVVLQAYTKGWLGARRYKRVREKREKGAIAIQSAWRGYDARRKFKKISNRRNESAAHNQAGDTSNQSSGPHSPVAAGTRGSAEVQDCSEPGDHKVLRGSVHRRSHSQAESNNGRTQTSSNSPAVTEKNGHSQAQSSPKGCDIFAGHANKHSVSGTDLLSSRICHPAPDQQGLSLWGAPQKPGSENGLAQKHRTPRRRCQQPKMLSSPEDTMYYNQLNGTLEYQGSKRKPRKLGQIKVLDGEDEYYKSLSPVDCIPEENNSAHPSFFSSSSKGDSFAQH
`Cc1ccc(NC(=O)c2ccc(CN3CCN(C)CC3)cc2)cc1Nc1nc(-c2cccnc2)cs1` gave a residual activity of 82.6%. `CC(C)[C@H](CO)Nc1nc(Nc2cccc(Cl)c2)c2ncn(C(C)C)c2n1` showed a residual activity of 94.2%. `CSc1nc(-c2ccc(F)cc2)c(-c2ccnc(NC(C)c3ccccc3)c2)[nH]1` (stereo not drawn) was tested, and the residual activity was 100%.

These compounds were tested against CDK2 CCNA2 (human) (UniProt P24941+P20248) in the same assay as above. Settings: compound 0.5 µM; ATP 10 µM.
CDK2 CCNA2 (human), sequence (P20248 whole entry, looked up, other chains not shown): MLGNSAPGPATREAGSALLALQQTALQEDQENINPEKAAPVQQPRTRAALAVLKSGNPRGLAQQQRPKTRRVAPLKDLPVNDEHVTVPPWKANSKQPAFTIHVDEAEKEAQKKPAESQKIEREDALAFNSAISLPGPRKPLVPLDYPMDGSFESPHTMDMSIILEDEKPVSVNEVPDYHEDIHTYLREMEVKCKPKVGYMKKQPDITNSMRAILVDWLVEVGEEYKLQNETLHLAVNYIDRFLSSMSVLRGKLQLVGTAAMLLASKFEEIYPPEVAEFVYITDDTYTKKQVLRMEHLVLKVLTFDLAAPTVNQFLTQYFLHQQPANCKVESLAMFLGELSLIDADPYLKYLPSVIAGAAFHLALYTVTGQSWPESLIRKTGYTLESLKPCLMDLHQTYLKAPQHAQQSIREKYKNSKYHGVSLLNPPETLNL
Compound `Cc1ccc(NC(=O)c2ccc(CN3CCN(C)CC3)cc2)cc1Nc1nc(-c2cccnc2)cs1` has a residual activity of 94.7%. With `CC(C)[C@H](CO)Nc1nc(Nc2cccc(Cl)c2)c2ncn(C(C)C)c2n1` the residual activity was 6.91%. With `CSc1nc(-c2ccc(F)cc2)c(-c2ccnc(NC(C)c3ccccc3)c2)[nH]1` (stereo not drawn) the residual activity was 96.8%.

What follows are compounds tested against CAMK4 (human) (UniProt Q16566) in the same assay as above. Settings: compound 0.5 µM; ATP 10 µM.
With `Cc1ccc(NC(=O)c2ccc(CN3CCN(C)CC3)cc2)cc1Nc1nc(-c2cccnc2)cs1` the residual activity was 98.6%. `CC(C)[C@H](CO)Nc1nc(Nc2cccc(Cl)c2)c2ncn(C(C)C)c2n1` was tested, and the residual activity was 95.3%. `CSc1nc(-c2ccc(F)cc2)c(-c2ccnc(NC(C)c3ccccc3)c2)[nH]1` (stereo not drawn) showed a residual activity of 106%.

Each compound was assayed against ITK (human) (UniProt Q08881) in the same assay as above. Settings: compound 0.5 µM; ATP 10 µM.
Work on `Cc1ccc(NC(=O)c2ccc(CN3CCN(C)CC3)cc2)cc1Nc1nc(-c2cccnc2)cs1` yielded a residual activity of 98.7%. Work on `CC(C)[C@H](CO)Nc1nc(Nc2cccc(Cl)c2)c2ncn(C(C)C)c2n1` yielded a residual activity of 86.9%. Compound `CSc1nc(-c2ccc(F)cc2)c(-c2ccnc(NC(C)c3ccccc3)c2)[nH]1` (stereo not drawn) has a residual activity of 91.6%.

The compounds below were run against TEC (human) (UniProt P42680) in the same assay as above. Settings: compound 0.5 µM; ATP 10 µM.
TEC (human), sequence (P42680 whole entry, looked up): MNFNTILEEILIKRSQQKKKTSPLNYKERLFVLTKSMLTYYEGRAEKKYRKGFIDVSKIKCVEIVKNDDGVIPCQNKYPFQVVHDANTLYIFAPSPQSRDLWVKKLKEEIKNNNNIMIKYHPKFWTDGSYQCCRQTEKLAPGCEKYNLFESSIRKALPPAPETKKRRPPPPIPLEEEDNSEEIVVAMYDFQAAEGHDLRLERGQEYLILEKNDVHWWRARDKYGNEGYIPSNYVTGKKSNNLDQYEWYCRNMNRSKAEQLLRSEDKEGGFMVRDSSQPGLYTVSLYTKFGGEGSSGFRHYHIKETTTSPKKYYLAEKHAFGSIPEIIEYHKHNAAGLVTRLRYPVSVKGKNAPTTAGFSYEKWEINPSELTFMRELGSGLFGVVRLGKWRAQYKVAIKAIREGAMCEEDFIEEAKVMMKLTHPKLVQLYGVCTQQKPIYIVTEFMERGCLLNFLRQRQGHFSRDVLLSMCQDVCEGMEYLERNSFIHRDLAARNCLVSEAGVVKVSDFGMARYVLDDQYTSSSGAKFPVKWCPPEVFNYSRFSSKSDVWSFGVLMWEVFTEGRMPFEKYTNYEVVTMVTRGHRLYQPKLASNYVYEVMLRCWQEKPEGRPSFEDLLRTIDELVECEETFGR
With `Cc1ccc(NC(=O)c2ccc(CN3CCN(C)CC3)cc2)cc1Nc1nc(-c2cccnc2)cs1` the residual activity was 83.2%. Compound `CC(C)[C@H](CO)Nc1nc(Nc2cccc(Cl)c2)c2ncn(C(C)C)c2n1` has a residual activity of 127%. For `CSc1nc(-c2ccc(F)cc2)c(-c2ccnc(NC(C)c3ccccc3)c2)[nH]1` (stereo not drawn), the residual activity was 120%.

The compounds below were run against PASK (human) (UniProt Q96RG2) in the same assay as above. Settings: compound 0.5 µM; ATP 10 µM.
`Cc1ccc(NC(=O)c2ccc(CN3CCN(C)CC3)cc2)cc1Nc1nc(-c2cccnc2)cs1` gave a residual activity of 103%. With `CC(C)[C@H](CO)Nc1nc(Nc2cccc(Cl)c2)c2ncn(C(C)C)c2n1` the residual activity was 93.1%. `CSc1nc(-c2ccc(F)cc2)c(-c2ccnc(NC(C)c3ccccc3)c2)[nH]1` (stereo not drawn) was tested, and the residual activity was 95.7%.

Each compound was assayed against PDGFRB (human) (UniProt P09619) in the same assay as above. Settings: compound 0.5 µM; ATP 10 µM.
Compound `Cc1ccc(NC(=O)c2ccc(CN3CCN(C)CC3)cc2)cc1Nc1nc(-c2cccnc2)cs1` has a residual activity of 17.3%. In the case of `CC(C)[C@H](CO)Nc1nc(Nc2cccc(Cl)c2)c2ncn(C(C)C)c2n1`, the residual activity is reported as 106%. In the case of `CSc1nc(-c2ccc(F)cc2)c(-c2ccnc(NC(C)c3ccccc3)c2)[nH]1` (stereo not drawn), the residual activity is reported as 97.6%.

Each compound was assayed against BLK (human) (UniProt P51451) in the same assay as above. Settings: compound 0.5 µM; ATP 10 µM.
BLK (human), sequence (P51451 whole entry, looked up): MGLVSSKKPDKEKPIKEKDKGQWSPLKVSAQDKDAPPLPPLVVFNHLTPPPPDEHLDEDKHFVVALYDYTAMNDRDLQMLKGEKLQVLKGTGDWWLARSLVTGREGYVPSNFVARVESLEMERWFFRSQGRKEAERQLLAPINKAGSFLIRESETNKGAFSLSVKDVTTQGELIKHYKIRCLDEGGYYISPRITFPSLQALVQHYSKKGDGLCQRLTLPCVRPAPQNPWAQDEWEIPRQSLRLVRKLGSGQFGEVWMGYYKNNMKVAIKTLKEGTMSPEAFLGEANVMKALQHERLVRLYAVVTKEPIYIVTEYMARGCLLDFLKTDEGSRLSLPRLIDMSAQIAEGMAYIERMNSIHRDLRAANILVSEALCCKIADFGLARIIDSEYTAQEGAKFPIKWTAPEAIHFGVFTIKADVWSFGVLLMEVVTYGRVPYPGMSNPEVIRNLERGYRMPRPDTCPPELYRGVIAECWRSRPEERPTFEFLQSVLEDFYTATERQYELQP
With `Cc1ccc(NC(=O)c2ccc(CN3CCN(C)CC3)cc2)cc1Nc1nc(-c2cccnc2)cs1` the residual activity was 57.5%. For `CC(C)[C@H](CO)Nc1nc(Nc2cccc(Cl)c2)c2ncn(C(C)C)c2n1`, the residual activity was 68.8%. `CSc1nc(-c2ccc(F)cc2)c(-c2ccnc(NC(C)c3ccccc3)c2)[nH]1` (stereo not drawn) showed a residual activity of 110%.

These compounds were tested against MAP3K8 (human) (UniProt P41279) in the same assay as above. Settings: compound 0.5 µM; ATP 10 µM.
`Cc1ccc(NC(=O)c2ccc(CN3CCN(C)CC3)cc2)cc1Nc1nc(-c2cccnc2)cs1` was tested, and the residual activity was 91.5%. For `CC(C)[C@H](CO)Nc1nc(Nc2cccc(Cl)c2)c2ncn(C(C)C)c2n1`, the residual activity was 101%. Work on `CSc1nc(-c2ccc(F)cc2)c(-c2ccnc(NC(C)c3ccccc3)c2)[nH]1` (stereo not drawn) yielded a residual activity of 88.6%.

Each compound was assayed against ULK1 (human) (UniProt O75385) in the same assay as above. Settings: compound 0.5 µM; ATP 10 µM.
`Cc1ccc(NC(=O)c2ccc(CN3CCN(C)CC3)cc2)cc1Nc1nc(-c2cccnc2)cs1` showed a residual activity of 97.7%. `CC(C)[C@H](CO)Nc1nc(Nc2cccc(Cl)c2)c2ncn(C(C)C)c2n1` showed a residual activity of 67.5%. In the case of `CSc1nc(-c2ccc(F)cc2)c(-c2ccnc(NC(C)c3ccccc3)c2)[nH]1` (stereo not drawn), the residual activity is reported as 110%.

Each compound was assayed against ULK3 (human) (UniProt Q6PHR2) in the same assay as above. Settings: compound 0.5 µM; ATP 10 µM.
`Cc1ccc(NC(=O)c2ccc(CN3CCN(C)CC3)cc2)cc1Nc1nc(-c2cccnc2)cs1` was tested, and the residual activity was 104%. `CC(C)[C@H](CO)Nc1nc(Nc2cccc(Cl)c2)c2ncn(C(C)C)c2n1` was tested, and the residual activity was 59.6%. With `CSc1nc(-c2ccc(F)cc2)c(-c2ccnc(NC(C)c3ccccc3)c2)[nH]1` (stereo not drawn) the residual activity was 85.3%.

Each compound was assayed against HIPK3 (human) (UniProt Q9H422) in the same assay as above. Settings: compound 0.5 µM; ATP 10 µM.
HIPK3 (human), sequence (Q9H422 whole entry, looked up): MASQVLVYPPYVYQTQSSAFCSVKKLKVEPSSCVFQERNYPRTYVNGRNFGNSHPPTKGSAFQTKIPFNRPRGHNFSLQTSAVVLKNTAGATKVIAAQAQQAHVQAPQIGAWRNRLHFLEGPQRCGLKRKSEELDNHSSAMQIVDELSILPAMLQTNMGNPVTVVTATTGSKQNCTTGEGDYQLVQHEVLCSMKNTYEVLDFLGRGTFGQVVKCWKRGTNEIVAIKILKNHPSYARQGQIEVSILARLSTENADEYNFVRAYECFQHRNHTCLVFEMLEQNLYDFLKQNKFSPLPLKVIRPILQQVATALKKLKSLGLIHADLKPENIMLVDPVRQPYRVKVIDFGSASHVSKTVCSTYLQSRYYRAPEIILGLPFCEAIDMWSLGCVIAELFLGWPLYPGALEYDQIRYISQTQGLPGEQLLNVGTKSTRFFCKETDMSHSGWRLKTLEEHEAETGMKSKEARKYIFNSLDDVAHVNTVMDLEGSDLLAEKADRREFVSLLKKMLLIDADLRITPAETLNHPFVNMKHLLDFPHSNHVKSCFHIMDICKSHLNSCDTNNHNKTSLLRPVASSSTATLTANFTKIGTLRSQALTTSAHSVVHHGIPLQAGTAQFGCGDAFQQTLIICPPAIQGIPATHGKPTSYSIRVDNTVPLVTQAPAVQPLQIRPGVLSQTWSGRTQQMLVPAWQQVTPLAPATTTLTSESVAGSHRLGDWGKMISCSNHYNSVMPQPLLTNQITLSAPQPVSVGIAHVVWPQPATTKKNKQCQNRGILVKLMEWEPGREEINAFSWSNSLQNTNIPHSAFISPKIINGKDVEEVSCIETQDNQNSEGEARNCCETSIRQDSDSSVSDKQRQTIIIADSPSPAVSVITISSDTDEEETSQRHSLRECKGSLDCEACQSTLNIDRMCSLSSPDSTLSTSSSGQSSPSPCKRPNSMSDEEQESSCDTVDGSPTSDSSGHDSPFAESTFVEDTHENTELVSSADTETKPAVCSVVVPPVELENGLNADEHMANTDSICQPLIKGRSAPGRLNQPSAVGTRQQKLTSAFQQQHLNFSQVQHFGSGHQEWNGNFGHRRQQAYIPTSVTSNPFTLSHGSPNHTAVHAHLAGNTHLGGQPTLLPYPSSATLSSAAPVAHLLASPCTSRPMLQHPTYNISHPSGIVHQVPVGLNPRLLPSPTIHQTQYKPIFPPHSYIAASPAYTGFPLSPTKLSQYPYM
`Cc1ccc(NC(=O)c2ccc(CN3CCN(C)CC3)cc2)cc1Nc1nc(-c2cccnc2)cs1` was tested, and the residual activity was 101%. In the case of `CC(C)[C@H](CO)Nc1nc(Nc2cccc(Cl)c2)c2ncn(C(C)C)c2n1`, the residual activity is reported as 102%. In the case of `CSc1nc(-c2ccc(F)cc2)c(-c2ccnc(NC(C)c3ccccc3)c2)[nH]1` (stereo not drawn), the residual activity is reported as 101%.

Each compound was assayed against AURKC (human) (UniProt Q9UQB9) in the same assay as above. Settings: compound 0.5 µM; ATP 10 µM.
`Cc1ccc(NC(=O)c2ccc(CN3CCN(C)CC3)cc2)cc1Nc1nc(-c2cccnc2)cs1` was tested, and the residual activity was 112%. Work on `CC(C)[C@H](CO)Nc1nc(Nc2cccc(Cl)c2)c2ncn(C(C)C)c2n1` yielded a residual activity of 93.2%. Compound `CSc1nc(-c2ccc(F)cc2)c(-c2ccnc(NC(C)c3ccccc3)c2)[nH]1` (stereo not drawn) has a residual activity of 100%.

These compounds were tested against MARK3 (human) (UniProt P27448) in the same assay as above. Settings: compound 0.5 µM; ATP 10 µM.
MARK3 (human), sequence (P27448 whole entry, looked up): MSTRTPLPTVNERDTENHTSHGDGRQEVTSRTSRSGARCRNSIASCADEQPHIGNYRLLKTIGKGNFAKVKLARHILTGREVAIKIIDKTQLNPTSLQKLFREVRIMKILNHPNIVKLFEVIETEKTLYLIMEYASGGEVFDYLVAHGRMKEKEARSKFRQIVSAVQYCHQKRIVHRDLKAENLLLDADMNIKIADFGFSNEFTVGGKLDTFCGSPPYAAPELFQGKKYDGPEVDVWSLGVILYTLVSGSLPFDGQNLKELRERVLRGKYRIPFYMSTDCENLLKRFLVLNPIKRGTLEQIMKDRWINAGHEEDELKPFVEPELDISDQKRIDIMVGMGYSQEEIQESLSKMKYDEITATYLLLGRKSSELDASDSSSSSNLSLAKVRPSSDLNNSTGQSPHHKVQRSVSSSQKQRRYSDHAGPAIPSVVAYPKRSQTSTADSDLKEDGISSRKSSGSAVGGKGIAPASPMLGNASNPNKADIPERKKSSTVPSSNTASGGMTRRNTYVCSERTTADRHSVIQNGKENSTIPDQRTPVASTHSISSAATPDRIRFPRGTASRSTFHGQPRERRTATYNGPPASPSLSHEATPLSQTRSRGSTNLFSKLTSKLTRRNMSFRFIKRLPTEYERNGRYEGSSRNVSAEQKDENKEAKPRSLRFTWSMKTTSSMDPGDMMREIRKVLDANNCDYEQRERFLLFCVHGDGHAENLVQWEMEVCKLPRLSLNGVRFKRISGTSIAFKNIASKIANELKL
In the case of `Cc1ccc(NC(=O)c2ccc(CN3CCN(C)CC3)cc2)cc1Nc1nc(-c2cccnc2)cs1`, the residual activity is reported as 100%. Compound `CC(C)[C@H](CO)Nc1nc(Nc2cccc(Cl)c2)c2ncn(C(C)C)c2n1` has a residual activity of 96.6%. With `CSc1nc(-c2ccc(F)cc2)c(-c2ccnc(NC(C)c3ccccc3)c2)[nH]1` (stereo not drawn) the residual activity was 100%.

The compounds below were run against DMPK (human) (UniProt Q09013) in the same assay as above. Settings: compound 0.5 µM; ATP 10 µM.
For `Cc1ccc(NC(=O)c2ccc(CN3CCN(C)CC3)cc2)cc1Nc1nc(-c2cccnc2)cs1`, the residual activity was 104%. With `CC(C)[C@H](CO)Nc1nc(Nc2cccc(Cl)c2)c2ncn(C(C)C)c2n1` the residual activity was 108%. `CSc1nc(-c2ccc(F)cc2)c(-c2ccnc(NC(C)c3ccccc3)c2)[nH]1` (stereo not drawn) gave a residual activity of 80%.

What follows are compounds tested against MAPK1 (human) (UniProt P28482) in the same assay as above. Settings: compound 0.5 µM; ATP 10 µM.
In the case of `Cc1ccc(NC(=O)c2ccc(CN3CCN(C)CC3)cc2)cc1Nc1nc(-c2cccnc2)cs1`, the residual activity is reported as 91.6%. In the case of `CC(C)[C@H](CO)Nc1nc(Nc2cccc(Cl)c2)c2ncn(C(C)C)c2n1`, the residual activity is reported as 86.7%. With `CSc1nc(-c2ccc(F)cc2)c(-c2ccnc(NC(C)c3ccccc3)c2)[nH]1` (stereo not drawn) the residual activity was 102%.
